# Reference: article PMC12595434, “Development of retinoid nuclear receptor pathway antagonists through targeting aldehyde dehydrogenase 1A3” (iScience, 2025)
# Experiments:
# CDCP1 = target: T1, CDCP1 (Homo sapiens, UniProt Q9H5V8); experiment: Thermal proteome profiling (TPP) in A375 cells; assay type: cell-based; settings: CDCP1, 1 uM
# T1 construct: Treated A375 cells were harvested from 10 × 15 cm plates; endogenous in cells; host or cells: A375 melanoma cells
# PVRL1 = target: T2, PVRL1 (Homo sapiens, UniProt Q15223); experiment: Thermal proteome profiling (TPP) in A375 cells; assay type: cell-based; settings: PVRL1, 1 uM
# T2 construct: Treated A375 cells were harvested from 10 × 15 cm plates; endogenous in cells; host or cells: A375 melanoma cells
# T2 sequence (Q15223 31-517): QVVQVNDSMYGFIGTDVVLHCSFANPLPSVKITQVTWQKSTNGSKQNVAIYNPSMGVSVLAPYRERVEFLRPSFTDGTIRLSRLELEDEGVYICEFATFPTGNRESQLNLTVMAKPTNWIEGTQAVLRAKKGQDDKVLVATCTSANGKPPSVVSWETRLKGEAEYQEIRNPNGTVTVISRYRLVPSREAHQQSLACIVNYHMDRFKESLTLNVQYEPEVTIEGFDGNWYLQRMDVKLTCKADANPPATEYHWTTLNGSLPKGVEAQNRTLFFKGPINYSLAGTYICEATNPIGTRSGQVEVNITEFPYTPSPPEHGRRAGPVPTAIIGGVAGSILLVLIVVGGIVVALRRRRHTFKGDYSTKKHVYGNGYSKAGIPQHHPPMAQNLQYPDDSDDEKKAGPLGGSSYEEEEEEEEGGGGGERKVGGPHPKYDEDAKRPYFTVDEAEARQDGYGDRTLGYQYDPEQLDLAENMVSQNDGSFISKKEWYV
# Ca2+-L = experiment: Off-target profiling panel; assay type: binding; settings: 10 μM
# 5HT2A = 5HT2A (Homo sapiens, UniProt P28223); experiment: Off-target profiling panel; assay type: binding; settings: read-out: Inhibition by MBE1 at 10 μM (%)
# Sequence of 5HT2A (P28223 whole entry): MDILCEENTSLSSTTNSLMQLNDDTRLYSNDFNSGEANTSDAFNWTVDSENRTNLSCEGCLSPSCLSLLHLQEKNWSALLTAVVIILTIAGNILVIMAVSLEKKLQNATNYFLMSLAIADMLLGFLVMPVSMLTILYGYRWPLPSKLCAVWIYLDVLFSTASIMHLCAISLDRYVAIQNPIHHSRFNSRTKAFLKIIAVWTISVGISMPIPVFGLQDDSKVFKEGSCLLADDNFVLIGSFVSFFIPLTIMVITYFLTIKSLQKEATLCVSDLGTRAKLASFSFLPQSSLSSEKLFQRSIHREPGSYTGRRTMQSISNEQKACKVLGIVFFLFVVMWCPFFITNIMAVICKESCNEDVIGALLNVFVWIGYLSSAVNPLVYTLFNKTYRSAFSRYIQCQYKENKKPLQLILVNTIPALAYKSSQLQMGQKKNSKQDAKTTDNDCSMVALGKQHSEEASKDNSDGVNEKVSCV
# op-mu = op-mu (Homo sapiens, UniProt P35372); experiment: Off-target profiling panel; assay type: binding; settings: read-out: Inhibition by MBE1 at 10 μM (%)
# Sequence of op-mu (P35372 whole entry): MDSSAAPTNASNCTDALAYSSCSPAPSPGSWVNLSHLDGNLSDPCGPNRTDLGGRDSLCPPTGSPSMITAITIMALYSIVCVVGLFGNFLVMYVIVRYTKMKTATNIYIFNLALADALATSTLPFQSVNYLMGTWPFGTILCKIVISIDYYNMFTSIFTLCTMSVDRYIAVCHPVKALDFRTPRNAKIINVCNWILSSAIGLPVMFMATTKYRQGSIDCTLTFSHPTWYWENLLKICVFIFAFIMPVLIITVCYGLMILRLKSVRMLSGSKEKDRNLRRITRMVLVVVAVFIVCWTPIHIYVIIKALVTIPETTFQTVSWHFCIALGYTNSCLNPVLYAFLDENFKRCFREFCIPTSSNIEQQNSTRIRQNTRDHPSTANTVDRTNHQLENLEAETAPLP
# 5HT3 = 5HT3 (Homo sapiens, UniProt P46098); experiment: Off-target profiling panel; assay type: binding; settings: read-out: Inhibition by MBE1 at 10 μM (%)
# Sequence of 5HT3 (P46098 24-478): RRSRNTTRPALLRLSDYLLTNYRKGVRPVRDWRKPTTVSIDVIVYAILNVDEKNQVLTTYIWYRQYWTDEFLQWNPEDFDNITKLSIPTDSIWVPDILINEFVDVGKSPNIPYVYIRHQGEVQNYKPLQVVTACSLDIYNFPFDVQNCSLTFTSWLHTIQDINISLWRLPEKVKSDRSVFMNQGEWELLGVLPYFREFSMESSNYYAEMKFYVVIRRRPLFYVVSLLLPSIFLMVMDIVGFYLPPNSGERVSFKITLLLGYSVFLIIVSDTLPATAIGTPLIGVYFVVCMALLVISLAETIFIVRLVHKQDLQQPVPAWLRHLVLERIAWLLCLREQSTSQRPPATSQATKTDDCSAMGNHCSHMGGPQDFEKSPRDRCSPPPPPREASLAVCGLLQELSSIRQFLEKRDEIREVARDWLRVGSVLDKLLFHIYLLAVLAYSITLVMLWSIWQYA
# CB2 = CB2 (Homo sapiens, UniProt P34972); experiment: Off-target profiling panel; assay type: binding; settings: read-out: Inhibition by MBE1 at 10 μM (%)
# Sequence of CB2 (P34972 whole entry): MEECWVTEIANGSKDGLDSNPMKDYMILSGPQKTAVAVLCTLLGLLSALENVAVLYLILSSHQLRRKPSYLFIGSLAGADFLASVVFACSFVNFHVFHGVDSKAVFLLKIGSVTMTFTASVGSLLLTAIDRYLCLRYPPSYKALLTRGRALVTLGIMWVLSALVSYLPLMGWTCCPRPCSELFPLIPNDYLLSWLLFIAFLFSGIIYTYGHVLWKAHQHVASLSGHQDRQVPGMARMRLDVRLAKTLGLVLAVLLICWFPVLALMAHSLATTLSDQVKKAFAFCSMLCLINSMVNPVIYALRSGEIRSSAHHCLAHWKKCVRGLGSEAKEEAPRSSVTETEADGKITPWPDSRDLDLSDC
# HaCaT cells = experiment: Dose-titration cytotoxicity analysis; settings: 24 hour incubation, highest tested dose 10 μM
# [1] = 7-day repeat-dose study, oral gavage; assay type: in vivo, mouse; settings: 50 mg/kg twice daily oral gavage
# Procedure: In order to accommodate in vivo dosing and to also determine any potential toxic effects of MBE1.5, we performed a 7-day repeat-dose study administering a suspension of MBE1.5 at 50 mg/kg twice daily via oral gavage.
# Finally, to establish a pharmacokinetic profile throughout dosing, MBE1.5 was analyzed in serum 12 h post dose on day 1 and day 7. […] To accommodate consistent plasma concentrations without accumulation, MBE1.5 was formulated to a lower concentration in mouse diet that would administer a dose equivalent to 25 mg/kg daily. This formulated diet was provided to mice for 5 days, at which point serum was analyzed for MBE1.5 concentration at 6:30 a.m. and 4:00 p.m. on day 5 to capture differences in mouse feeding cycles.
# Figure S5. Specificity, tolerability and pharmacokinetic analysis of MBE1.5 in […]
# MCF7 or SUM159 cells and a dose titration of MBE1.5 was performed against each cell line in the Aldelfuor assay to confirm ALDH1A3 isoform specificity for MBE1.5. n= 3 […]
# proteome profiling in A375 cells was performed in DMSO and at two concentrations of MBE1 using a 10 temperature melting curve for isolation, followed by proteomic analysis, filtering and mapping peptide frequency as a composite melting curve, n=3 biological replicates per condition-temperature. […] ALDH1A3 or NPTN were assessed by WB to confirm the stabilization of ALDH1A3 but not NPTN (55kD, as indicated by arrow) by MBE1. […]
# analysis of MBE1.5 following identification of proper formulations and administration to fasted male CD1 mice at 1 mg/kg intravenous (IV) and 10 mg/kg oral gavage (PO). n = 3 mice per arm. G-I, MBE1.5 administered as a suspension to C57BL/6 male mice via bi-daily PO administration for seven days as compared to the vehicle was tracked for body weight (G), complete blood count at day 7 (H) and plasma concentrations of MBE1.5 were analyzed at 12 hours post Day 1 dosing and 12 hours following the last dose (I). n = 4 male mice per arm. […] Upon acclimation, serum MBE1.5 concentrations were calculated following blood draws at 6:30 am and 4 pm. n = 5 mice per arm. […]
# T3-MCA sarcoma = experiment: T3-MCA syngeneic tumor growth; assay type: in vivo, mouse; settings: MBE1.5-formulated diet 270 ppm (equivalent 40 mg/kg per day), by day 7 of treatment
# Procedure: A considerable number of research efforts have attempted to generate retinoid nuclear receptor pathway antagonists, whether through targeting retinoid transport, the atRA synthetic enzymes, or by creating inverse agonists of the RAR/RXR nuclear receptors. […] Thus, mice were injected subcutaneously with T3-MCA sarcoma cells and were randomized by tumor size once tumors became palpable. One group received MBE1.5-formulated diet at 270 ppm (equivalent dose of 40 mg/kg body mass per day based on average food consumption), and the other group received control diet.
# No statistical method was used to predetermine the number of animals needed across experiments. Xenograft experiments were conducted using 50k cells suspended in 10 μL PBS for mammary gland injection or 100k cells in 100 μL PBS for subcutaneous injection. Bioluminescent imaging (BLI) and tumor measurement was conducted as previously described.[78] IV/PO pharmacokinetic analysis of MBE1 and MBE1.5 was conducted on male CD-1 mice from Vital River that had been fasted for 4 h. Sampling was performed from either jugular puncture or tail-vein sampling using BD yellow-capped tubes for serum analysis or K2-EDTA tubes for hematology. Medicated feed was manufactured at Envigo using MBE1.5 powder with a final concentration of 270 ppm. Medicated diet was stored at 4°C for no longer than 6 months at a time.
# [2] = A-375, read-out: DMSO-1uM MBE1 TM shift
# T1 sequence (Q9H5V8 30-836): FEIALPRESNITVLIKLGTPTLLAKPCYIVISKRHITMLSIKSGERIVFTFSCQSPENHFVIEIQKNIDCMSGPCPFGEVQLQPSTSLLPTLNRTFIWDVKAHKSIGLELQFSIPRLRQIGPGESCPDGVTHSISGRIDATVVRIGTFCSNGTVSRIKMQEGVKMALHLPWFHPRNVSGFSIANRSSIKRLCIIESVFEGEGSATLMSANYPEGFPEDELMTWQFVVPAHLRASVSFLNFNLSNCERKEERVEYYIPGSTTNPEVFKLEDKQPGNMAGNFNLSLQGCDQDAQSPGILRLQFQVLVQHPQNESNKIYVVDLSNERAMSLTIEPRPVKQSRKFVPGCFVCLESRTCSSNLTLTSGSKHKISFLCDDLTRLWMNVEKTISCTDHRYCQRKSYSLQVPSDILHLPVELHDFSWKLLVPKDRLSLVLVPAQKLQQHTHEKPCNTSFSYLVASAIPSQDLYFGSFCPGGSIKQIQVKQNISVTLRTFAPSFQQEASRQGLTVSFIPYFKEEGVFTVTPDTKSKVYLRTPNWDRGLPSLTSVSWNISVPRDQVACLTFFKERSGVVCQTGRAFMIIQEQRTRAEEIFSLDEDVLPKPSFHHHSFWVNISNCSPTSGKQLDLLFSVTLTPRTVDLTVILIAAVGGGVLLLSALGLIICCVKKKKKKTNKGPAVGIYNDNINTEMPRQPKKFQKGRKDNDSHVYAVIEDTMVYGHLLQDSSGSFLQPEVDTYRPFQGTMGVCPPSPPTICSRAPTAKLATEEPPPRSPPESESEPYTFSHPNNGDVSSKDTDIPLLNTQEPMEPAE
Structure (SMILES),ΔTm at 1 µM (CDCP1; [2]) [°C],1uM MBE1 Tm (CDCP1),ΔTm at 1 µM (PVRL1; [2]) [°C],1uM MBE1 Tm (PVRL1),Inhibition by MBE1 at 10 μM (%) (Ca2+-L),inhibition at 10 µM (5HT2A) [%],inhibition at 10 µM (op-mu) [%],inhibition at 10 µM (5HT3) [%],inhibition at 10 µM (CB2) [%],nonspecific cytotoxicity (in words) (HaCaT cells),"serum level 12 h post dose, day 1 vs day 7 (in words) [1]","body weight vs vehicle (in words) ([1]; 7 days, C57BL/6 male mice)",blood profile (complete blood count) vs vehicle (in words) ([1]; day 7),tumor growth (in words) (T3-MCA sarcoma)
"CCc1cnccc1C(=O)Nc1cc2c(cc1F)NC(=O)CC2 [MBE1, 3-ethyl-N-(7-fluoro-2-oxo-3,4-dihydro-1H-quinolin-6-yl)pyridine-4-carboxamide]",-7.8,63.2685,-15.1,64,−0.09,-16.1,3.98,-18.6,5.07,nontoxic,–,–,–,–
"CCc1ccccc1C(=O)Nc1cc2c(cc1F)NC(=O)CC2 [MBE1.5, 2-ethyl-N-(7-fluoro-2-oxo-3,4-dihydro-1H-quinolin-6-yl)benzamide]",–,–,–,–,–,–,–,–,–,–,accumulated,no difference,no detectable difference,dramatically reduced tumor growth
